Data reported in patent US4239709A, “Process for preparing optically active oxazaphosphorins” (Otsuka Pharmaceutical Co., Ltd., priority 1978, dated 1980).
Where two headings read alike, the source gives them in different places.

Tests used:
[1] = tested on: Lymphoid leukemia L-1210 solid-type tumor; experiment: L1210 Tumor test (solid-type tumor, subcutaneous, inhibition of tumor proliferation by tumor weight); format: in vivo, BDF1 male mice; conditions: for ED50 / ED90: Mus musculus; for ED50 / ED90 / ID50 / ID90: L1210 tumor; for ED50: read-out: ID50 (the source's name); for ED90: read-out: ID90 (the source's name)
Description: (§1) Lymphoid leukemia L-1210 solid-type tumor was transplanted (1×10^6 cells) in subcutis on the back of BDF1 male mice having the body weight of about 22 g. The mice were killed 10-11 days after the transplantation and the inhibitory effect of tumor proliferation was evaluated by measuring the weight of tumor.
(§2) Each of 5, 10, 20, 50, 100 mg of compounds to be tested is dissolved in a phisiological NaCl solution (5 mg/kg of concentration) and administered by intraperitoneal injection (I.P.) or orally (P.O.). As to the reference the phisiological NaCl solution (5 mg/kg of concentration) was used.

[2] = tested on: Lymphocytic leukemia P388 tumor; experiment: P388 tumor test (Table 2, headed P328 Tumor test); format: in vivo, BDF1 male mice; conditions: for ED50 / ED90: Mus musculus, P388, ip; for ED50: read-out: ID50 (the source's name); for ED90: read-out: ID90 (the source's name)
Description: Lymphocytic leukemia P388 liquid-type tumor was transplanted (1×10^6 cells) in abdominal cavity of BDF1 male mice having the body weight of about 20 g. The effect was evaluated by a method of ILS (Increase in life span).
as §1, with “Similarly lymphocytic” for “Lymphoid”, “P388” for “L-1210”, “15 to 16” for “10-11”
as §2

[3] = Acute toxicity test (LD50); format: in vivo, ICR male mice; conditions: for LD50: ICR male mice, I.P.
Description: LD50 (mg/kg) values (ICR male mice, I.P.) of R-(+)-cyclophosphamide, S-(-)-cyclophosphamide and racemic form of cyclophosphamide are shown below.

[4] = tested on: Lymphoid leukemia L-1210 solid-type tumor; experiment: L1210 Tumor test (solid-type tumor, subcutaneous, inhibition of tumor proliferation by tumor weight); format: in vivo, BDF1 male mice; conditions: Mus musculus, L1210, sc, I.O. (so in the source)
PC6-Tumor = conditions: compared with R-(+)-cyclophosphamide and racemic form; Cox et al. 1976; cited from earlier work
[5] = compared with R-(+)-cyclophosphamide; Cox et al. 1976; cited from earlier work
[6] = P328 Tumor test (so in the source), I.P.
[7] = mouse, in vivo, ip, read-out: LD50

O=P1(N(CCCl)CCCl)NCCCO1 (racemic) [Racemic form of cyclophosphamide, cyclophosphamide]
ED50 ([1]; L1210, po, P.O.): 28 mg/kg | ED90 ([1]; L1210, po, P.O.): 90 mg/kg | ED50 [2, 6]: 12.9 mg/kg | ED90 [2, 6]: 39.7 mg/kg | LD50 [3, 7]: 440 mg/kg | ED50 ([4]; read-out: ID50 (the source's name)): 33 mg/kg | ED90 ([4]; read-out: ID90 (the source's name)): 107 mg/kg

O=P1(N(CCCl)CCCl)NCCCO1 (single isomer, unassigned) [S-(-)-cyclophosphamide]
ID50 ([1]; I.P.): 44 mg/kg | ID90 ([1]; I.P.): 143 mg/kg | ID50 ([1]; P.O.): 29 mg/kg | ID90 ([1]; P.O.): 95 mg/kg | ID50 [2, 6]: 14.6 mg/kg | ID90 [2, 6]: 26.3 mg/kg | anti-tumor effect against P388-Tumor ([2]; compared with R-(+)-cyclophosphamide and racemic form): better than those of R-(+)-cyclophosphamide and racemic form of cyclophosphamide | LD50 [3]: 330 mg/kg | anti-tumor effect against PC6-Tumor (PC6-Tumor): better than those of R-(+)-cyclophosphamide and racemic form of cyclophosphamide | pharmacological activities [5]: excellent pharmacological activities as compared with R-(+)-cyclophosphamide

O=P1(N(CCCl)CCCl)NCCCO1 (single isomer, unassigned) [R-(+)-cyclophosphamide]
ED50 ([1]; L1210, ip, I.P.): 32 mg/kg | ED90 ([1]; L1210, ip, I.P.): 104 mg/kg | ED50 ([1]; L1210, po, P.O.): 24 mg/kg | ED90 ([1]; L1210, po, P.O.): 76 mg/kg | anti-tumor effect against L 1210-Tumor ([1]; compared with S-(-)-cyclophosphamide and racemic form): better anti-tumor effect than those of shown by S-(-)-cyclophosphamide and racemic form of cyclophosphamide | ED50 [2, 6]: 24.3 mg/kg | ED90 [2, 6]: 50.8 mg/kg | acute toxicity ([3]; in mice, compared with S-(-)-cyclophosphamide and racemic form): lower acute toxicity (in mice) than those shown by S-(-)-cyclophosphamide and racemic form of cyclophosphamide | LD50 [3, 7]: 550 mg/kg
